The values that follow come from patent US20260365628A1, “SUBSTITUTED 3,4-DIHYDROQUINOLINONE INHIBITORS OF TSHR” (Septerna, Inc., priority 2022, published 2026).

In the assay the target is T1, hTSHR (Homo sapiens, UniProt P16473).
T1 construct: expressed in transfected cells
In words: hTSHR TR-FRET cAMP Assay (inhibition of M22-stimulated cAMP production). It is filed as cell-based. The conditions noted are these: Expi293F Inducible cells stably expressing hTSHR; cAMP HTRF; stimulated with EC80 of anti-TSHR antibody M22; 15 min compound preincubation, 30 min at 37° C.; read-out: Activity (IC50 bins). A digest of the protocol: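 Readout was a cAMP HTRF ratio of 655/620 nm after lysis, scaled between the EC80 M22 signal (0% inhibition) and no-agonist vehicle (100%). Frozen induced Expi293F-hTSHR cells saw test compounds (0.5% DMSO) for 15 min at 37 °C before 30 min of M22 stimulation at EC80.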

T1 sequence (P16473 21-764): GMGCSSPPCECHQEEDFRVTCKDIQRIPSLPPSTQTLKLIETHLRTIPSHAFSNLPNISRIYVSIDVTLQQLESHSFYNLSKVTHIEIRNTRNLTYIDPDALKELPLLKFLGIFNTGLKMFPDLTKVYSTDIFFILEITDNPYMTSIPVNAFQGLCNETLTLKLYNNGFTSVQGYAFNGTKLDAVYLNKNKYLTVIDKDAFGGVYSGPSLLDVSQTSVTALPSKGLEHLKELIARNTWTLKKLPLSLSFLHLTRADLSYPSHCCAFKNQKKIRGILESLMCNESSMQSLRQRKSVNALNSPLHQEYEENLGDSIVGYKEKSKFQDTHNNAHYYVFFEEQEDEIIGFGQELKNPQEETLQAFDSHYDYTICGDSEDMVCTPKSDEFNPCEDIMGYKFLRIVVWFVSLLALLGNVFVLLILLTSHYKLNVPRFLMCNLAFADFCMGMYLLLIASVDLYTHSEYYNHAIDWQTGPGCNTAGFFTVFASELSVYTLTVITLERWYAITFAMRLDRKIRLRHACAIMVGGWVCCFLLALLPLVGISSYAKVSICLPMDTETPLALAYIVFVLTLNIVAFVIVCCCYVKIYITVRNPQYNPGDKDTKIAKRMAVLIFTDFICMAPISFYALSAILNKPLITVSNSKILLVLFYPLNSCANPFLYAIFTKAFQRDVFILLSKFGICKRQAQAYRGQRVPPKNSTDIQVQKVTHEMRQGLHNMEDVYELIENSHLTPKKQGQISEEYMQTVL

Regarding `CC(C)(C)NC(=O)Nc1ccc2c(c1)CCC(=O)N2Cc1cc(Cl)ccc1Cl` [Example 24, 3-tert-butyl-1-{1-[(2,5-dichlorophenyl)methyl]-2-oxo-3,4-dihydroquinolin-6-yl}urea], the IC50 – broadly, the concentration at which inhibition is half-maximal – is under 100 nM.
Turning to `C[C@H](c1ccccc1)N1C(=O)COc2cc(NC(=O)NC(C)(C)C)ccc21` [Example 34, (R)-1-(tert-butyl)-3-(3-oxo-4-(1-phenylethyl)-3,4-dihydro-2H-benzo[b][1,4]oxazin-7-yl)urea], the IC50 lay in the range of 100 to 1000 nM.
As for `CC(C)(C)NC(=O)Nc1ccc2c(c1)CCC(=O)N2Cc1cccc(C(F)(F)F)c1F` [Example 54, 1-(tert-butyl)-3-(1-(2-fluoro-3-(trifluoromethyl)benzyl)-2-oxo-1,2,3,4-tetrahydroquinolin-6-yl)urea], the half-maximal inhibitory concentration (IC50) is under 100 nM.
Regarding `CC(C)(C)NC(=O)Nc1cc2c(cc1C#N)N(Cc1ccccc1)C(=O)CC2` [Example 270, 1-(1-benzyl-7-cyano-2-oxo-3,4-dihydroquinolin-6-yl)-3-tert-butylurea], the IC50 is over 1000 nM.
The figure for `CC(C)(CC(F)(F)F)NC(=O)Nc1ccc2c(c1)ncc(=O)n2Cc1cccc(OC(F)(F)F)c1` [Example 243, 1-(2-oxo-1-(3-(trifluoromethoxy)enzyl)-1,2-dihydroquinoxalin-6-yl)-3-(4,4,4-trifluoro-2-methylbutan-2-yl)urea] is 100 to 1000 nM; for `C[C@@H](c1cccc(OC(F)(F)F)c1)n1c(=O)cnc2cc(NC(=O)NC34CC(C3)C4)ccc21` [Example 206, (S)-1-(bicycl[1.1.1]pentan-1-yl)-3-(2-oxo-1-(1-(3-(trifluoromethoxy)phenyl)ethyl)-1,2-dihydroquinoxalin-6-yl)urea] it is 100 to 1000 nM; for `C[C@@H](c1cccc(Cl)c1)n1c(=O)cnc2cc(NC(=O)NC(C)(C)C)c(C(F)(F)F)cc21` [Example 358, 3-tert-butyl-1-{1-[(1S)-1-(3-chlorophenyl)ethyl]-2-oxo-7-(trifluoromethyl)quinoxalin-6-yl}urea] it is 100 to 1000 nM.
With `C[C@@H](c1cccc(OC(F)(F)F)c1)n1c(=O)cnc2cc(NC(=O)NC3CCC3)ccc21` [Example 205, (S)-1-cyclobutyl-3-(2-oxo-1-(1-(3-(trifluoromethoxy)phenyl)ethyl)-1,2-dihydroquinoxalin-6-yl)urea], the IC50 fell in the range of 100 to 1000 nM.
Next, `CC(C)(C)NC(=O)Nc1ccc2c(c1)CCC(=O)N2C(CO)c1ccccc1` (centres unmarked) [Example 30, 1-(tert-butyl)-3-(1-(2-hydroxy-1-phenylethyl)-2-oxo-1,2,3,4-tetrahydroquinolin-6-yl)urea]: over 1000 nM.
For the compound `C[C@@H](c1cc(F)ccc1F)n1c(=O)cnc2cc(NC(=O)NC(C)(C)C)ccc21` [Example 148, (S)-1-(tert-butyl)-3-(1-(1-(2,5-difluorophenyl)ethyl)-2-oxo-1,2-dihydroquinoxalin-6-yl)urea], the concentration for half-maximal inhibition (IC50) fell in the range of 100 to 1000 nM.
Turning to `C[C@@H](c1cccc(C(F)(F)F)c1)n1c(=O)cnc2cc(NC(=O)NC(C)(C)C)ccc21` [Example 99, (S)-1-(tert-butyl)-3-(2-oxo-1-(1-(3-(trifluoromethyl)phenyl)ethyl)-1,2-dihydroquinoxalin-6-yl)urea], the IC50 is 100 to 1000 nM.
The figure for `C[C@H]1Oc2cc(NC(=O)NC3CCC(F)(F)CC3)ccc2N([C@@H](C)c2ccccc2)C1=O` [Example 258, 1-(4,4-difluoro-cyclohexyl)-3-((R)-2-methyl-3-oxo-4-((S)-1-phenyl-ethyl)-3,4-dihydro-2H-benzo[b][1,4]oxazin-7-yl)urea] is 100 to 1000 nM; for `C[C@H]1Oc2cc(NC(=O)NC(C)(C)C)ccc2N([C@@H](C)c2nccc(C(F)(F)F)n2)C1=O` [Example 316, 1-(tert-butyl)-3-((R)-2-methyl-3-oxo-4-((S)-1-(4-(trifluoromethyl)pyrimidin-2-yl)ethyl)-3,4-dihydro-2H-benzo[b][1,4]oxazin-7-yl)urea] it is over 1000 nM.
The figure for `C[C@H]1Oc2nc(NC(=O)NC(C)(C)C)c(C(F)(F)F)cc2N([C@@H](C)c2ccccc2)C1=O` [Example 376, 1-(tert-butyl)-3-((R)-3-methyl-2-oxo-1-((S)-1-phenylethyl)-7-(trifluoromethyl)-2,3-dihydro-1H-pyrido[2,3-b][1,4]oxazin-6-yl)urea] is under 100 nM.
As for `C[C@@H](c1cccc([C@H](O)C(F)(F)F)c1)n1c(=O)cnc2cc(NC(=O)NC(C)(C)C)ccc21` [Example 156, 1-(tert-butyl)-3-(2-oxo-1-((S)-1-(3-((R)-2,2,2-trifluoro-1-hydroxyethyl)phe-nyl)ethyl)-1,2-dihydroquinoxalin-6-yl)urea], the IC50 fell in the range of 100 to 1000 nM.
In the case of `C[C@@H](c1cccc(OC(F)(F)F)c1)n1c(=O)cnc2cc(NC(=O)NC3(C)CCCCC3)ccc21` [Example 210, (S)-1-(1-methylcyclohexyl)-3-(2-oxo-1-(1-(3-(trifluoromethoxy)phenyl)ethyl)-1,2-dihydroquinoxalin-6-yl)urea], the IC50 was under 100 nM.
Next, `C[C@@H](c1cc(Cl)ccc1Cl)n1c(=O)cnc2cc(NC(=O)NC(C)(C)C)c(C#N)cc21` [Example 363, (S)-1-(tert-butyl)-3-(7-cyano-1-(1-(2,5-dichlorophenyl)ethyl)-2-oxo-1,2-dihydroquinoxalin-6-yl) urea]: 100 to 1000 nM; `C[C@H]1Oc2nc(NC(=O)NC(C)(C)C)ccc2N(Cc2ccccc2)C1=O` [Example 280, (R)-1-(1-benzyl-3-methyl-2-oxo-2,3-dihydro-1H-pyrido[2,3-b][1,4]oxazin-6-yl)-3-(tert-butyl)urea]: 100 to 1000 nM.
Regarding `C[C@@H](c1cccc(OC(F)(F)F)c1)n1c(=O)cnc2c(Cl)c(NC(=O)NC(C)(C)C)ccc21` [Example 218, (S)-1-(tert-butyl)-3-(5-chloro-2-oxo-1-(1-(3-(trifluoromethoxy)phenyl)ethyl)-1,2-dihydroquinoxalin-6-yl)urea], the IC50 was 100 to 1000 nM.
As for `CC(C)(C)NC(=O)Nc1ccc2c(c1)OCC(=O)N2Cc1cccc(C(O)C(F)(F)F)c1` (centres unmarked) [Example 77, 1-(tert-butyl)-3-(3-oxo-4-(3-(2,2,2-trifluoro-1-hy-droxyethyl)benzyl)-3,4-dihydro-2H-benzo[b][1,4]oxa-zin-7-yl)urea], the IC50 fell in the range of 100 to 1000 nM.
Regarding `CC(c1cc(Cl)ccc1C#N)N1C(=O)COc2cc(NC(=O)NC(C)(C)C)ccc21` (centres unmarked) [Example 293, 1-(tert-butyl)-3-(4-(1-(5-chloro-2-cyanophenyl)ethyl)-3-oxo-3,4-dihydro-2H-benzo[b][1,4]oxazin-7-yl)urea], the IC50 is over 1000 nM.
As to `C[C@@H](c1cc(OC(F)(F)F)ccc1F)n1c(=O)cnc2cc(NC(=O)NC(C)(C)C)ccc21` [Example 104, (S)-1-(tert-butyl)-3-(1-(1-(2-fluoro-5-(trifluoromethoxy)phe-nyl)ethyl)-2-oxo-1,2-dihydroquinoxalin-6-yl)urea], the IC50 was 100 to 1000 nM.
As for `CC(C)(CNC(=O)Nc1ccc2c(c1)ncc(=O)n2Cc1cccc(OC(F)(F)F)c1)C(F)(F)F` [Example 244, 1-(2-oxo-1-(3-(trifluoromethoxy)benzyl)-1,2-dihydroquinoxalin-6-yl)-3-(3,3,3-trifluoro-2,2-dimethylpropyl) urea], the IC50 is 100 to 1000 nM.
In the case of `C[C@H]1Oc2cc(NC(=O)NC(C)(C)C)c(F)cc2N(Cc2cccc(OC(F)F)c2)C1=O` [Example 338, (R)-1-(tert-butyl)-3-(4-(3-(difluoromethoxy)benzyl)-6-fluoro-2-methyl-3-oxo-3,4-dihydro-2H-benzo[b][1,4]oxazin-7-yl)urea], the half-maximal inhibitory concentration (IC50) was in the range of 100 to 1000 nM.
For `C[C@@H](c1ccccc1C#N)N1C(=O)CCc2cc(NC(=O)NC(C)(C)C)ccc21` [Example 61, (S)-1-(tert-butyl)-3-(1-(1-(2-cyanophenyl)ethyl)-2-oxo-1,2,3,4-tetrahydroquinolin-6-yl)urea], the IC50 was in the range of 100 to 1000 nM.
Take `C[C@@H](c1cccc(Cl)c1)n1c(=O)cnc2cc(NC(=O)NC(C)(C)C)c(C#N)cc21` [Example 361, 3-tert-butyl-1-{1-[(1S)-1-(3-chlorophenyl)ethyl]-7-cyano-2-oxoquinoxalin-6-yl}urea]: the IC50 is 100 to 1000 nM.
Consider `C[C@H]1Oc2c(cc(C(F)(F)F)c(NC(=O)NC(C)(C)C)c2F)N(Cc2cccc(C(F)F)c2)C1=O` [Example 356, (R)-1-(tert-butyl)-3-(4-(3-(difluoromethyl)benzyl)-8-fluoro-2-methyl-3-oxo-6-(trifluoromethyl)-3,4-dihydro-2H-benzo[b][1,4]oxazin-7-yl)urea], for which the half-inhibitory concentration (IC50) lay in the range of 100 to 1000 nM.
The figure for `C[C@@H](c1cccc(Cl)c1)N1C(=O)COc2cc(NC(=O)NC(C)(C)C)ccc21` [Example 37, (S)-1-(tert-butyl)-3-(4-(1-(3-chlorophenyl)ethyl)-3-oxo-3,4-dihydro-2H-benzo[b][1,4]oxazin-7-yl)urea] is under 100 nM; for `CC(C)(C)NC(=O)Nc1cc2c(cc1F)N(Cc1ccccc1)C(=O)CC2` [Example 65, 1-(1-benzyl-7-fluoro-2-oxo-1,2,3,4-tetrahydroquinolin-6-yl)-3-(tert-butyl)urea] it is 100 to 1000 nM.
As for `C[C@H](c1nccc(C(F)(F)F)n1)N1C(=O)[C@@H](C)Oc2cc(NC(=O)NC(C)(C)C)ccc21` [Example 317, 1-(tert-butyl)-3-((R)-2-methyl-3-oxo-4-((R)-1-(4-(trifluoromethyl)pyrimidin-2-yl)ethyl)-3,4-dihydro-2H-benzo[b][1,4]oxazin-7-yl)urea], the IC50 is 100 to 1000 nM.
As to `C[C@H]1Oc2c(cc(F)c(NC(=O)NC(C)(C)C)c2F)N(Cc2ccccc2)C1=O` [Example 329, (R)-1-(4-benzyl-6,8-difluoro-2-methyl-3-oxo-3,4-dihydro-2H-benzo[b][1,4]oxazin-7-yl)-3-(tert-butyl)urea], the 50% inhibitory concentration (IC50) was in the range of 100 to 1000 nM.
Take `Cc1cccc([C@H](C)N2C(=O)COc3cc(NC(=O)NC(C)(C)C)ccc32)c1` [Example 57, (S)-1-(tert-butyl)-3-(3-oxo-4-(1-(m-tolyl)ethyl)-3,4-dihydro-2H-benzo[b][1,4]oxazin-7-yl)urea]: the half-inhibitory concentration (IC50) is under 100 nM.
